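Interpolation was linear, between the two tested concentrations surrounding the appropriate level; five concentrations were tested over 48 hours in 96-well plates. GI50: concentration for 50% inhibition of growth. TGI is the concentration that stops growth completely.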
Columns and labels:
Assay in all cases: NCI anticancer screen, dose series, 48 h
786-0 renal = tested on: 786-0 renal
A498 renal = tested on: A498 renal
A549 NSCLC = tested on: A549 NSCLC
ACHN renal = tested on: ACHN renal
BT-549 breast = tested on: BT-549 breast
CAKI-1 renal = tested on: CAKI-1 renal
CCRF-CEM leukemia = tested on: CCRF-CEM leukemia
COLO 205 colon = tested on: COLO 205 colon
DU-145 prostate = tested on: DU-145 prostate
EKVX NSCLC = tested on: EKVX NSCLC
HCC-2998 colon = tested on: HCC-2998 colon
HCT-116 colon = tested on: HCT-116 colon
HCT-15 colon = tested on: HCT-15 colon
HL-60(TB) leukemia = tested on: HL-60(TB) leukemia
HOP-62 NSCLC = tested on: HOP-62 NSCLC
HOP-92 NSCLC = tested on: HOP-92 NSCLC
HS 578T breast = tested on: HS 578T breast
HT29 colon = tested on: HT29 colon
IGROV1 ovarian = tested on: IGROV1 ovarian
K-562 leukemia = tested on: K-562 leukemia
KM12 colon = tested on: KM12 colon
M14 melanoma = tested on: M14 melanoma
MALME-3M melanoma = tested on: MALME-3M melanoma
MCF7 breast = tested on: MCF7 breast
MDA-MB-231 breast = tested on: MDA-MB-231 breast
MDA-MB-435 = tested on: MDA-MB-435
MOLT-4 leukemia = tested on: MOLT-4 leukemia
NCI-H226 lung = tested on: NCI-H226 lung
NCI-H23 lung = tested on: NCI-H23 lung
NCI-H460 lung = tested on: NCI-H460 lung
NCI-H522 lung = tested on: NCI-H522 lung
NCI/ADR-RES ovarian = tested on: NCI/ADR-RES ovarian
OVCAR-3 ovarian = tested on: OVCAR-3 ovarian
OVCAR-4 ovarian = tested on: OVCAR-4 ovarian
OVCAR-5 ovarian = tested on: OVCAR-5 ovarian
PC-3 prostate = tested on: PC-3 prostate
RPMI-8226 leukemia = tested on: RPMI-8226 leukemia
RXF 393 renal = tested on: RXF 393 renal
SF-268 CNS = tested on: SF-268 CNS
SF-295 CNS = tested on: SF-295 CNS
SF-539 CNS = tested on: SF-539 CNS
SK-MEL-2 melanoma = tested on: SK-MEL-2 melanoma
SK-MEL-28 melanoma = tested on: SK-MEL-28 melanoma
SK-MEL-5 melanoma = tested on: SK-MEL-5 melanoma
SK-OV-3 ovarian = tested on: SK-OV-3 ovarian
SN12C renal = tested on: SN12C renal
SNB-19 CNS = tested on: SNB-19 CNS
SNB-75 CNS = tested on: SNB-75 CNS
SR leukemia = tested on: SR leukemia
SW-620 colon = tested on: SW-620 colon
T-47D breast = tested on: T-47D breast
TK-10 renal = tested on: TK-10 renal
U251 CNS = tested on: U251 CNS
UACC-257 melanoma = tested on: UACC-257 melanoma
UO-31 renal = tested on: UO-31 renal

Cc1cc(C(O)CN(C)C)cc2c1ccc1cc(C(C)C)ccc12 (stereo not given)
GI50 (786-0 renal): 1.84 µM | TGI (786-0 renal): 3.4 µM | GI50 (A498 renal): 2.36 µM | TGI (A498 renal): 11.7 µM | GI50 (A549 NSCLC): 1.93 µM | TGI (A549 NSCLC): 3.54 µM | GI50 (ACHN renal): 1.87 µM | TGI (ACHN renal): 3.65 µM | GI50 (BT-549 breast): 5.67 µM | TGI (BT-549 breast): 19.5 µM | GI50 (CAKI-1 renal): 1.42 µM | TGI (CAKI-1 renal): 3.11 µM | GI50 (CCRF-CEM leukemia): 2.48 µM | TGI (CCRF-CEM leukemia): 5.65 µM | GI50 (COLO 205 colon): 1.73 µM | TGI (COLO 205 colon): 3.32 µM | GI50 (DU-145 prostate): 2.19 µM | TGI (DU-145 prostate): 4.08 µM | GI50 (EKVX NSCLC): 3.39 µM | TGI (EKVX NSCLC): 17.9 µM | GI50 (HCC-2998 colon): 1.57 µM | TGI (HCC-2998 colon): 3.16 µM | GI50 (HCT-116 colon): 1.8 µM | TGI (HCT-116 colon): 3.29 µM | GI50 (HCT-15 colon): 1.81 µM | TGI (HCT-15 colon): 3.61 µM | GI50 (HL-60(TB) leukemia): 1.89 µM | TGI (HL-60(TB) leukemia): 4.08 µM | GI50 (HOP-62 NSCLC): 1.59 µM | TGI (HOP-62 NSCLC): 3.08 µM | GI50 (HOP-92 NSCLC): 1.83 µM | TGI (HOP-92 NSCLC): 6.45 µM | GI50 (HS 578T breast): 2.58 µM | TGI (HS 578T breast): 8.92 µM | GI50 (HT29 colon): 1.56 µM | TGI (HT29 colon): 3.62 µM | GI50 (IGROV1 ovarian): 1.85 µM | TGI (IGROV1 ovarian): 3.8 µM | GI50 (K-562 leukemia): 2.15 µM | TGI (K-562 leukemia): 4.88 µM | GI50 (KM12 colon): 1.82 µM | TGI (KM12 colon): 3.32 µM | GI50 (M14 melanoma): 2.02 µM | TGI (M14 melanoma): 4.03 µM | GI50 (MALME-3M melanoma): 1.92 µM | TGI (MALME-3M melanoma): 3.83 µM | GI50 (MCF7 breast): 1.71 µM | TGI (MCF7 breast): 3.19 µM | GI50 (MDA-MB-231 breast): 1.64 µM | TGI (MDA-MB-231 breast): 3.55 µM | GI50 (MDA-MB-435): 1.79 µM | TGI (MDA-MB-435): 3.64 µM | GI50 (MOLT-4 leukemia): 2.16 µM | TGI (MOLT-4 leukemia): 5.22 µM | GI50 (NCI-H226 lung): 2.66 µM | TGI (NCI-H226 lung): 8.84 µM | GI50 (NCI-H23 lung): 2.85 µM | TGI (NCI-H23 lung): 10.6 µM | GI50 (NCI-H460 lung): 1.74 µM | TGI (NCI-H460 lung): 3.43 µM | GI50 (NCI-H522 lung): 1.84 µM | TGI (NCI-H522 lung): 3.72 µM | GI50 (NCI/ADR-RES ovarian): 2.07 µM | TGI (NCI/ADR-RES ovarian): 5.47 µM | GI50 (OVCAR-3 ovarian): 1.92 µM | TGI (OVCAR-3 ovarian): 3.6 µM | GI50 (OVCAR-4 ovarian): 2.33 µM | TGI (OVCAR-4 ovarian): 4.84 µM | GI50 (OVCAR-5 ovarian): 2.02 µM | TGI (OVCAR-5 ovarian): 4.36 µM | GI50 (PC-3 prostate): 2.24 µM | TGI (PC-3 prostate): 5.77 µM | GI50 (RPMI-8226 leukemia): 2.36 µM | TGI (RPMI-8226 leukemia): 5.12 µM | GI50 (RXF 393 renal): 1.78 µM | TGI (RXF 393 renal): 3.36 µM | GI50 (SF-268 CNS): 2.8 µM | TGI (SF-268 CNS): 7.73 µM | GI50 (SF-295 CNS): 1.85 µM | TGI (SF-295 CNS): 3.54 µM | GI50 (SF-539 CNS): 1.98 µM | TGI (SF-539 CNS): 3.59 µM | GI50 (SK-MEL-2 melanoma): 2 µM | TGI (SK-MEL-2 melanoma): 3.92 µM | GI50 (SK-MEL-28 melanoma): 1.88 µM | TGI (SK-MEL-28 melanoma): 3.36 µM | GI50 (SK-MEL-5 melanoma): 1.76 µM | TGI (SK-MEL-5 melanoma): 3.16 µM | GI50 (SK-OV-3 ovarian): 4.58 µM | TGI (SK-OV-3 ovarian): 20 µM | GI50 (SN12C renal): 3.19 µM | TGI (SN12C renal): 20.6 µM | GI50 (SNB-19 CNS): 2.07 µM | TGI (SNB-19 CNS): 4.75 µM | GI50 (SNB-75 CNS): 1.72 µM | TGI (SNB-75 CNS): 3.67 µM | GI50 (SR leukemia): 1.96 µM | TGI (SR leukemia): 5.21 µM | GI50 (SW-620 colon): 1.79 µM | TGI (SW-620 colon): 3.5 µM | GI50 (T-47D breast): 2.04 µM | TGI (T-47D breast): 4.48 µM | GI50 (TK-10 renal): 1.77 µM | TGI (TK-10 renal): 3.36 µM | GI50 (U251 CNS): 1.92 µM | TGI (U251 CNS): 3.53 µM | GI50 (UACC-257 melanoma): 2.11 µM | TGI (UACC-257 melanoma): 3.79 µM | GI50 (UO-31 renal): 1.58 µM | TGI (UO-31 renal): 3.72 µM

Source: PubChem BioAssay (NCI)
